Patent US6514969B2, “β-amyloid inhibitors, processes for preparing them, and their use in pharmaceutical compositions” (Boehringer Ingelheim Pharma KG, priority 2000, dated 2003)

Tested on: Aβ formation in human astroglioma cells (U 373) transfected with human APP751 (U373-K10)
Assay: Inhibition of Aβ formation in medium of APP751-overexpressing U373-K10 cells (ELISA)
Type: cell-based
Settings: U373 MG
Text: The compounds according to the invention are characterized in that they inhibit the process of the formation of Aβ or its release from cells. This property was investigated according to the test described below.
The inhibition of Aβ formation was investigated in the medium of a cell line overexpressing APP751. For this purpose, human astroglioma cells (U 373, ATCC) were stably transfected with the gene for human APP751 under the control of a CMV promoter (vector pRC-CMV). A clone with a high APP751 expression (U373-K10) was selected. In order to carry out the assay the cells are plated out in 96-well plates (Falcon) in Dulbecco's-Minimal-Essential medium (DMEM, Bio-Whittaker) with 10% FCS and cultivated to confluence at 37° C./5% CO2.
The substances to be tested are first dissolved in 100% DMSO and then diluted to the test concentration in culture medium, so that the DMSO concentration of the test solution is always below 0.5%.
150 μl of the test solution are added per well to a confluent culture plate which has previously been washed once with DMEM, and pre-incubated for about 16 hours. This solution is replaced by 150 μl of fresh test solution after 1 wash and incubated again for 4 hours.
100 μl of this four-hour supernatant are transferred to an ELISA plate (Nunc) coated with the antibody 6E10 (specific for Aβ1-16, Senetek), and incubated overnight at 4° C. The Aβ is determined the next day by means of the alkaline phosphatase-conjugated antibody 6B10, which is specific for Aβ32-40.

Structure (SMILES) | IC50 [µM]
O=c1[nH]c2ccccc2n1C1CCN(CCCc2c(-c3ccccc3)nc3ccccn23)CC1 [Example 12, 1-{1-[3-(2-phenylimidazo[1,2-a]pyridin-3-yl)propyl]piperidin-4-yl}-1,3-dihydrobenzimidazol-2-one] | 12
O=c1[nH]c2ccccc2n1C1CCN(CCCc2c(-c3ccc(Cl)cc3)nc3ccccn23)CC1 [Example 13, 1-{1-[3-(2-p-chlorophenylimidazo[1,2-a]pyridin-3-yl)propyl]piperidin-4-yl}-1,3-dihydrobenzimidazol-2-one] | 15
Clc1ccc(-c2nc3ccccn3c2CCCN2CCN(Cc3ccccc3)CC2)cc1 [Example 14, 3-[3-(4-benzylpiperazin-1-yl)propyl]-2-(4-chlorophenyl)imidazo[1,2-a]pyridine] | 30
Clc1ccc(CN2CCN(CCCc3c(-c4ccc(Cl)cc4)nc4ccccn34)CC2)cc1 [Example 20, 3-{3-[4-(4-chlorobenzyl)piperazin-1-yl]propyl}-2-(4-chlorophenyl)imidazo[1,2-a]pyridine] | 35
O=C(/C=C/c1c(-c2ccccc2)nc2ccccn12)N1CCC(n2c(=O)[nH]c3ccccc32)CC1 [Example 21] | 20
